Measurements taken from patent US11952356B2, “Crystalline form of 1,4-bis[1,2-benzisoselenazol-3(2H)-one]-butane, method for preparing same and use thereof” (SHANGHAI YUANXI MEDICINE CORP., priority 2019, dated 2024).
Read-outs that look alike come from different tables or passages of the source.

Columns and labels:
HBV [1] = test: HBeAg assay in culture supernatant; format: cell-based
Method: (§1) Cell plating: HepAD38 cells were seeded in 24-well plates at a density of 8×10^4 cells/well, each well containing 500 μL of culture medium. Treatment: 9 h after plating, the cells were observed. […] The cells were cultured for 48 h, washed with PBS twice, added with the above drugs, and cultured for another 48 h. After the 48 h, the supernatant was collected, and HBV DNA, HBsAg, and HBeAg in the supernatant were detected. HBV DNA was preferentially determined.
HBsAg and HBeAg assays in culture supernatant: The assay was time-resolved immunofluorescence (ELISA) according to HBsAg and HBeAg assay kits of PE Corporation.
After 48 h, 1 mL of cell culture supernatant was collected for detecting HBsAg and HBeAg. The cells were washed at least 5 times with PBS. 1 mL of the last PBS washings was collected and used as the baseline for determining whether the plasmids were washed away. Note: when washing the cells, PBS was slowly added into the dish along the wall of the dish without resuspending the cells. The dish was then gently shaken to wash the cells, and the residual PBS was discarded after each washing to minimize the plasmid residues.

HBV [2] = test: HBV RNA assay in cell culture supernatant; format: cell-based
Method: as §1
(§2) Procedures for determining HBV DNA, HBV RNA, HBsAg and HBeAg in cell culture supernatant are as follows:
(§3) The cells were transferred to a larger culture dish, and cultured in a culture medium for 3 days. 1 mL of cell supernatant was collected for detecting HBV DNA and HBV RNA. If the detection was not timely performed, the samples were stored at −20° C.
(§4) 1 mL of collected cell culture supernatant and the last PBS washings collected at 48 h were centrifuged at 5000 rpm for 5 min. 200 μL of the supernatant after centrifugation was added to 5 μL of DNaseI+5 μL of DNasel buffer, well mixed and subjected to instantaneous centrifugation. The supernatant was incubated for 1 h at 37° C., mixed once every 30 min, and subjected to instantaneous centrifugation. After 1 h, 5 μL of EDTA was added and the system was incubated at 65° C. for 10 min before the DNaseI reaction was terminated.
(§5) 200 μL of HBV nucleic acid in cell supernatant was concentrated into a system of 20 μL by using a TransGene's HBV nucleic acid extraction kit.
(§6) The supernatant HBV DNA level and the baseline level of plasmid in PBS after DNase treatment were measured by real-time PCR. After reverse transcription of HBV RNA into cDNA, real time PCR was performed to detect the level.
(2) cDNA quantitative system after reverse transcription of HBV RNA: […]

[3] = test system: hepatic fibrosis animal model; test: CCl4-induced hepatic fibrosis animal model; format: in vivo, Balb/c mice; conditions: for average body weight / ALB (serum) / ALP (serum) / ALT (serum) / AST (serum) / TGF (serum) / TP (serum) / TrxR1 (serum): end of study; for ALB (serum) / ALP (serum) / ALT (serum) / AST (serum) / TGF (serum) / TP (serum) / TrxR1 (serum): model group = 1.00
Method: Animals: Balb/c inbred mice, male, six weeks old, purchased from Peking University, Health Science Center, Department of Laboratory Animal Science, with license number SCXK(Jing)2016-0010. The breeding environment was clean. The accommodation temperature was 25±2° C. The mice were bred in 12-hour light/darkness cycle, and had sufficient food and water supply.
After being prepared into a solution or suspension, the compound was administered to the mice at a dose of 5 mL/Kg.
20 male Balb/c mice aged 6 weeks were randomized into 4 groups. After a staged gradient induction using 25% CCl4 for 4 weeks (three times a week), the treatment started in the BSL (90 mg/kg) group and the BSM (180 mg/kg) group once a day, and the control group and model group were administered with 5‰ CMC-Na solution. After 8 weeks of induction, the mice were sacrificed and the blood was collected and centrifuged at 3000 rpm for 15 min to give the serum for detecting TGF-β1, TrxR1, AST, ALT, ALP, TP and the expression (hepatic fibrosis animal model is shown in FIG. 6). Part of liver was fixed with 4% paraformaldehyde, and subjected to immunohistochemical HE staining and Masson staining. Expressions of α-SMA and Collagen I in liver tissue were detected immunohistochemically. Part of liver was preserved in liquid nitrogen.

HBV [4] = test: HBV DNA assay in HepAD38 culture supernatant; format: cell-based; conditions: for Supernatant HBV DVA level: HepAD38 cells
Method: as §1
HBV DNA assay in culture supernatant: According to TransGen's Viral Nucleic Acid Extraction kit, the nucleic acid was extracted and by SYBR green qPCR, the viral DNA load was determined.
as §2, §3, §4, §5, §6

[5] = Stability test of crystalline form I (XRD after storage); format: physicochemical; conditions: 40° C./75% relative humidity and 60° C., 3 to 7 days
[6] = Grinding test, crystalline form by XRD; format: physicochemical
H22 cells = test: Tumor inhibitory activity assay in H22 mice; format: in vivo, mouse; conditions: 180 mg/kg once daily oral gavage; for Tumor growth inhibition: n=10
Method: After 2 days of acclimation, qualified animals were randomized into 4 groups with 10 animals each. On day 0, H22 cells were grafted at 1×10^4/mouse subcutaneously at the right axilla. The treatment started at 24 h after grafting. Long and short diameters of tumor were recorded daily and the tumor size was calculated according to the formula: long diameter×short diameter^2×0.5236. The body weight was measured every 2 days. After 21 days of treatment, blood was collected from eyeballs after chloral hydrate anesthesia. The mice were sacrificed and tumors were collected quickly.

[7] = BSL and BSM groups vs model group

O=c1c2ccccc2[se]n1CCCCn1[se]c2ccccc2c1=O [Crystalline form I, 1,4-BIS[1,2-BENZISOSELENAZOL-3(2H)-one]-butane]
Supernatant HBeAg level (HBV [1]; 0.5 μM): 22% | Supernatant HBeAg level (HBV [1]; 1.0 μM): 17% | Supernatant HBeAg level (HBV [1]; 5.0 μM): 43.1%^ | Inhibition effect on supernatant HBeAg (HBV [1]; summary in words): good inhibition effect | Supernatant HBV RNA level (HBV [2]; 0.5 μM): 48% | Supernatant HBV RNA level (HBV [2]; 1.0 μM): 42% | Supernatant HBV RNA level (HBV [2]; 5.0 μM): 43% | average body weight ([3]; BSL 90 mg/kg once a day, n ≥ 4): 17 g | average body weight ([3]; BSL 90 mg/kg): 17.00 ± 0.68 g | ALB (serum) ([3]; BSL 90 mg/kg): 1.83 | ALP (serum) ([3]; BSL 90 mg/kg): 0.82 | ALT (serum) ([3]; BSL 90 mg/kg): 0.48 | AST (serum) ([3]; BSL 90 mg/kg): 0.29 | TGF (serum) ([3]; BSL 90 mg/kg): 0.76 | TP (serum) ([3]; BSL 90 mg/kg): 1.35 | TrxR1 (serum) ([3]; BSL 90 mg/kg): 0.82 | Collagen1 expression in liver (staining) [3, 7]: significantly reduced | HE staining: symptoms of hepatocyte necrosis and inflammation [3, 7]: significantly reduced | Masson staining: fibrosis symptoms [3, 7]: gradually relieved | α-SMA expression in liver (staining) [3, 7]: significantly reduced | average body weight ([3]; BSM 180 mg/kg once a day, n ≥ 4): 18 g | average body weight ([3]; BSM 180 mg/kg): 18.04 ± 2.23 g | ALB (serum) ([3]; BSM 180 mg/kg): 1.47 | ALP (serum) ([3]; BSM 180 mg/kg): 0.73 | ALT (serum) ([3]; BSM 180 mg/kg): 0.39 | AST (serum) ([3]; BSM 180 mg/kg): 0.27 | TGF (serum) ([3]; BSM 180 mg/kg): 0.85 | TP (serum) ([3]; BSM 180 mg/kg): 1.36 | TrxR1 (serum) ([3]; BSM 180 mg/kg): 0.89 | Liver surface symptoms (roughness, granular sensation) ([3]; treatment groups (BSL 90 mg/kg, BSM 180 mg/kg) vs model group): improved | Supernatant HBV DVA level (HBV [4]; 0.5 μM): 62% | Supernatant HBV DVA level (HBV [4]; 1.0 μM): 63% | Supernatant HBV DVA level (HBV [4]; 5.0 μM): 70% | Inhibition effect on HBV DNA (HBV [4]; summary in words): good inhibition effect | XRD pattern after storage [5]: unchanged | Crystalline form after grinding (XRD) ([6]; listed as Example 1): Crystalline form I | Mean tumor weight (H22 cells; after 21 days of treatment): 138.33 mg | Tumor growth inhibition (tumor weight) (H22 cells; after 21 days of treatment): 88.70% | Tumor growth inhibition (tumor weight) (H22 cells; after 21 days of treatment, listed as crystalline form I): up to 88.7% | Tumor growth inhibition (H22 cells; day 9, tumor size): 70.42% | Tumor growth inhibition (H22 cells; day 10, tumor size): 78.32% | Tumor growth inhibition (H22 cells; day 11, tumor size): 76.31% | Tumor growth inhibition (H22 cells; day 12, tumor size): 78.27% | Tumor growth inhibition (H22 cells; day 13, tumor size): 76.03% | Tumor growth inhibition (H22 cells; day 14, tumor size): 72.24% | Tumor growth inhibition (H22 cells; day 15, tumor size): 65.74% | Tumor growth inhibition (H22 cells; day 16, tumor size): 76.97% | Tumor growth inhibition (H22 cells; day 17, tumor size): 78.21% | Tumor growth inhibition (H22 cells; day 18, tumor size): 82.33% | Tumor growth inhibition (H22 cells; day 19, tumor size): 87.15% | Tumor growth inhibition (H22 cells; day 20, tumor size): 88.49% | Tumor growth inhibition (H22 cells; day 21, tumor size): 86.67%

O=c1c2ccccc2[se]n1CCCCn1[se]c2ccccc2c1=O [Crystalline form I-a, 1,4-BIS[1,2-BENZISOSELENAZOL-3(2H)-one]-butane]
Crystalline form after grinding (XRD) [6]: crystalline form I | Crystalline form after grinding (XRD) ([6]; listed as Comparative Example 1): Crystalline form I | Crystalline form after grinding (XRD) ([6]; listed as Comparative Example 2): Crystalline form I | Crystalline form after grinding (XRD) ([6]; listed as Comparative Example 3): Crystalline form I

C=C1[C@H](CO)[C@@H](O)C[C@@H]1n1cnc2c(=O)[nH]c(N)nc21 [ETV, entecavir, reference compound]
Supernatant HBeAg level (HBV [1]; ETV concentration not given): 36.8% | Supernatant HBV DVA level (HBV [4]; ETV concentration not given): 80%
